Results: patent US20250109118A1, “HETEROCYCLIC COMPOUNDS AS SHP2 INHIBITORS, COMPOSITIONS COMPRISING THE HETEROCYCLIC COMPOUND, AND METHODS OF USE THEREOF” (JS INNOMED HOLDINGS LTD., priority 2021, published 2025)

Assays:
SHP2 (PTPN11/SHP2-FL) = molecular target: T1, SHP2 (PTPN11/SHP2-FL) (Homo sapiens, UniProt Q06124); experiment: SHP2 biochemical assay (DiFMUP prompt fluorescence); conditions: 0.5 nM SHP2, 0.35 μM activating peptide, DiFMUP 100 μM; read-out: SHP2 bichemical activity (IC50)
T1 construct: SHP2 (PTPN11/SHP2-FL, RBC produced, no cat #); purchased RBC no cat #
T1 sequence (Q06124 1-593): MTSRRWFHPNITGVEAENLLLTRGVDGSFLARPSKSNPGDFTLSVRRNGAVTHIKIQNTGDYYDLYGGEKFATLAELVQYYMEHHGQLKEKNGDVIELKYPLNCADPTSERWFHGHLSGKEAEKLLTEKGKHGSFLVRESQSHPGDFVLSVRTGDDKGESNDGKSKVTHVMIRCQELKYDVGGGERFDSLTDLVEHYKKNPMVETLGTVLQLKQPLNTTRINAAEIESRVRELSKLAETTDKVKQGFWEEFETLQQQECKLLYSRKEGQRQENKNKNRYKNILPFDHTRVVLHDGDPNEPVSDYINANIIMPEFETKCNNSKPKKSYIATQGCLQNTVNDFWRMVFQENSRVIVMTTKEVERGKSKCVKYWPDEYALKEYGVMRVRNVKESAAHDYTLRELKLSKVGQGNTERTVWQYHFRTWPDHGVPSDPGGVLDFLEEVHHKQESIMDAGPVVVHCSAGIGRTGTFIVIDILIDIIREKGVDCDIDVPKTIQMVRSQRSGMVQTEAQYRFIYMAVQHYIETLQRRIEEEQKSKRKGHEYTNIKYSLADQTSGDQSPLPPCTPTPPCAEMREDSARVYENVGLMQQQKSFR
Procedure: SHP2 is allosterically activated through binding of bis-tyro syiphorphorylated peptides to its Src Homology 2 (SH2) domains. The latter activation step leads to the release of the auto-inhibitory interface of SHP2, which in turn renders the SHP2 PTP active and available for substrate recognition and reaction catalysis. The catalytic activity of SHP2 was monitored using the surrogate substrate DiFMUP in a prompt fluorescence assay format. Specifically, the phosphatase reactions were performed at room temperature in 384-well black polystyrene plate, flat bottom, low flange, non-binding surface (Corning, Cat #3575) using a final reaction volume of 20 μL and the following assay buffer conditions: 60 mM HEPES, pH 7.2, 75 mM NaCl, 75 mM KCl, 1 mM EDTA, 0.01% Brij-35, 5 mM DTT, and 10% DMSO (final). The inhibition of SHP2 from the tested compounds (final concentrations varying from 0.003-100 μM) was monitored using an assay in which 0.5 nM of SHP2 (PTPN11/SHP2-FL, RBC produced, no cat #) was incubated with 0.35 μM of the peptide H2NLN(pY)IDLDLV(dPEG8)LST(pY)ASINFQK-amide. After 20 minutes of incubation at room temperature, the surrogate substrate DiFMUP (6,8-difluoro-7-hydroxy-4-methylcoumarin, Invitrogen, cat #D6567, 100 μM final concentration) was added to the reaction. The fluorescence signal was monitored using a microplate reader (Envision, Perkin-Elmer) using excitation and emission wavelengths of 355 nm and 460 nm, respectively. The inhibitor dose response curves were analyzed using normalized IC50 regression curve fitting with control based normalization.
The IC50 values of for Compounds disclosed are listed in Table 2, A: ≤10 nM; B: >10 nM and ≤100 nM; C: >100 nM and ≤1 uM; and D: >1 μM.

MiaPaCa-2 cells = experiment: MiaPaCa-2 Cell proliferation assay in 3D culture (CCK8); format: cell-based; conditions: Homo sapiens, MIA PaCa-2, 120 h; 3D spheroid culture, 5 days with compound, CCK8 readout
Procedure, shortened: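 Cells grown as spheroids (2500/well, ultra-low attachment, 10% FBS) for 24 h, then exposed 5 days to ten 3-fold compound dilutions at 0.1% DMSO. Viability by CCK8/WST-8, 1.5 h at 37 °C, absorbance 450 nm; IC50 from triplicates.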

Row | Structure (SMILES) | IC50 (SHP2 (PTPN11/SHP2-FL)) [nM] | IC50 (MiaPaCa-2 cells) [nM]
1 | CC1(CN)CCN(c2cnc(Sc3cccc(C(=O)NS(=O)(=O)c4ccccn4)c3Cl)c(N)n2)CC1 [Example 35, 3-((3-amino-5-(4-(aminomethyl)-4-methylpiperidin-1-yl)pyrazin-2-yl)thio)-2-chloro-N-(pyridin-2-ylsulfonyl)benzamide] | ≤ 10 | ≤ 500
2 | CC1(CN)CCN(c2cnc(Sc3cccc(C(=O)NS(=O)(=O)C4CC4)c3Cl)c(N)n2)CC1 [Example 36, 3-((3-amino-5-(4-(aminomethyl)-4-methylpiperidin-1-yl)pyrazin-2-yl)thio)-2-chloro-N-(cyclopropylsulfonyl)benzamide] | 10 to 100 | 500 to 5000
3 | CC1(CN)CCN(c2cnc(Sc3cccc(C(=O)NS(C)(=O)=O)c3Cl)c(N)n2)CC1 [Example 37, 3-((3-amino-5-(4-(aminomethyl)-4-methylpiperidin-1-yl)pyrazin-2-yl)thio)-2-chloro-N-(methylsulfonyl)benzamide] | 10 to 100 | 5000 to 50000
4 | CC1(CN)CCN(c2cnc(Sc3cccc(C(=O)NS(=O)(=O)c4cccnc4)c3Cl)c(N)n2)CC1 [Example 38, 3-((3-amino-5-(4-(aminomethyl)-4-methylpiperidin-1-yl)pyrazin-2-yl)thio)-2-chloro-N-(pyridin-3-ylsulfonyl)benzamide] | ≤ 10 | 500 to 5000
5 | CC1(CN)CCN(c2cnc(Sc3cccc(C(=O)NS(=O)(=O)c4ccncc4)c3Cl)c(N)n2)CC1 [Example 39, 3-((3-amino-5-(4-(aminomethyl)-4-methylpiperidin-1-yl)pyrazin-2-yl)thio)-2-chloro-N-(pyridin-4-ylsulfonyl)benzamide] | 10 to 100 | 5000 to 50000
6 | CC1(CN)CCN(c2cnc(Sc3cccc(NC(=O)NS(=O)(=O)c4ccncc4)c3Cl)c(N)n2)CC1 [Example 41, N-((3-((3-amino-5-(4-(aminomethyl)-4-methylpiperidin-1-yl)pyrazin-2-yl)thio)-2-chlorophenyl)carbamoyl)pyridine-4-sulfonamide] | ≤ 10 | 5000 to 50000
7 | CC1(CN)CCN(c2cnc(Sc3cccc(NC(=O)NS(=O)(=O)C4CCCC4)c3Cl)c(N)n2)CC1 [Example 42, N-((3-((3-amino-5-(4-(aminomethyl)-4-methylpiperidin-1-yl)pyrazin-2-yl)thio)-2-chlorophenyl)carbamoyl)cyclopentanesulfonamide] | ≤ 10 | ≤ 500

The remaining lines, values ahead:

Row | IC50 (SHP2 (PTPN11/SHP2-FL)) [nM] | IC50 (MiaPaCa-2 cells) [nM] | Structure (SMILES)
8 | ≤ 10 | 500 to 5000 | CC1(CN)CCN(c2cnc(Sc3cccc(C(=O)NS(=O)(=O)c4ccccc4F)c3Cl)c(N)n2)CC1 [Example 34, 3-((3-amino-5-(4-(aminomethyl)-4-methylpiperidin-1-yl)pyrazin-2-yl)thio)-2-chloro-N-((2-fluorophenyl)sulfonyl)benzamide]
9 | ≤ 10 | ≤ 500 | CC1(CN)CCN(c2cnc(Sc3cccc(NC(=O)NS(C)(=O)=O)c3Cl)c(N)n2)CC1 [Example 40, N-((3-((3-amino-5-(4-(aminomethyl)-4-methylpiperidin-1-yl)pyrazin-2-yl)thio)-2-chlorophenyl)carbamoyl)methanesulfonamide]
10 | ≤ 10 | ≤ 500 | CC1(CN)CCN(c2cnc(Sc3cccc(NC(=O)NS(=O)(=O)C4CC4)c3Cl)c(N)n2)CC1 [Example 43, N-((3-((3-amino-5-(4-(aminomethyl)-4-methylpiperidin-1-yl)pyrazin-2-yl)thio)-2-chlorophenyl)carbamoyl)cyclopropanesulfonamide]
